What was measured:
Assay type in all cases: cell-based, human
HuH-7 cells = experiment: Growth inhibitory effect on cancer cells (WST assay), Example 2.3; conditions: for IC50: HuH-7 cells, WST assay, concentrations 0-50 μM, control 0.1% DMSO; for IC50 compared with IC-2: comparison with IC-2
Method: HuH-7 cells, a human liver cancer cell line, were cultured on 10-cm cell culture dishes (TPP Techno Plastic Products AG, Trasadingen, Switzerland) by using DMEM under conditions at 5% CO2, 37° C., and 100% humidity. When the cells were 70 to 90% confluent, 200 μL of 0.25% Trypsin/1 mM EDTA solution, which had been prepared by diluting the stock solution 10-fold with PBS (−), was added to detach the cells. Then, the cells were centrifuged at 1000 rpm for 3 min at room temperature. The cells recovered were subcultured at a 1:4 split ratio.
First, 70 to 90% confluent HuH-7 cells were harvested and seeded (n=3) at 5×10^3 cells/well of a 96-well plate (TPP). After 24 h, each compound was added to the cells and the mixture was cultured at 37° C. The concentrations of each compound were 0, 10, 20, 30, 40, and 50 μM. For IC-2-506-1, however, the concentrations used were 0, 10, 20, 25, 30, 40, and 50 μM. Each control sample (0 μM) used was 0.1% DMSO, a solvent for each compound.
Next, 0, 24, 48, and 96 h after the compound treatment, 100 μIL of DMEM-diluted 10% Cell Counting Kit-8 (DOJINDO LABORATORIES, Kumamoto) was added. The mixture was incubated at 37° C. for 60 min and its absorbance (at a measurement wavelength of 450 nm/control wavelength of 600 nm) was measured by using a Sunrise Rainbow RC (Tecan Group Ltd., Mannedorf, Switzerland). Absorbance for the cells alone was calculated by subtracting, from the reading obtained, absorbance for 10% Cell Counting Kit-8 alone.
The “*” in figures indicates a significant difference of p<0.05 between 0.1% DMSO and each compound; and the “**” indicates a significant difference of p<0.01 (the same applies to all the figures in Examples).

LX-2 cells = experiment: Anti-fibrosis effect, summary statements on Example 3 (marker not specified)
Source text: α-Smooth muscle actin (α-SMA), a fibrosis marker, was used as an indicator, and RNA was collected from LX-2 cells treated with each low-molecular-weight compound. Next, an inhibitory effect on fibrosis was examined by real-time RT-PCR.
In addition, instead of α-SMA, another fibrosis marker collagen, type I, alpha 1 (COL1A1) was used as an indicator, and substantially the same protocol was repeated. The concentrations of each compound used were as described in FIG. 34. Each control sample used was 0.1% DMSO, a solvent for each compound. Here, COL1A1 primers used were 5′-CCT CCA GGG CTC CAA CGA G-3′ and 5′-TCAATCACTGTCTTGCCCCA-3′. The annealing was performed at 58° C. for 5 sec. The measurement results were obtained by dividing the calculated value for the COL1A1 gene by the calculated value for the GAPDH gene.

mesenchymal stem cell = experiment: Hepatocyte differentiation-inducing effect, summary statements on Example 4 (readout not specified)
Source text: Albumin, a hepatocyte marker, was used as an indicator, and RNA was collected from cells treated with each compound. Next, a hepatocyte differentiation-inducing effect was examined by real-time RT-PCR. The concentrations of the respective compounds were as described in FIG. 35. Each control sample used was 0.1% DMSO, a solvent for each compound.
By using urea synthesis, a hepatocyte function, as an indicator, a hepatocyte differentiation-inducing effect of each compound was investigated.
The cells treated with each compound were subjected to immunofluorescence analysis of albumin, a hepatocyte marker, to investigate a hepatocyte differentiation-inducing effect. The concentrations of the respective compounds were as described in FIG. 37. Each control sample used was 0.1% DMSO, a solvent for each compound.
By using glycogen synthesis, a hepatocyte function, as an indicator, a hepatocyte differentiation-inducing effect of each compound was investigated.

Wnt/β-catenin signaling [1] = experiment: Inhibitory effect on Wnt/β-catenin signaling in liver stellate cells (LX-2, TCF4 luciferase); conditions: concentration equal to or lower than that of IC-2
Method: While each compound was added at concentrations where the cell growth of fibrosis-causing liver stellate LX-2 cells was reduced to about 50 to 80%, Wnt/β-catenin signaling activity was measured. […] The concentrations of the respective compounds were as described in FIG. 41. Each control sample used was 0.1% DMSO, a solvent for each compound.
LX-2 cells, which were cultured and maintained by using 10% FBS/DMEM, were harvested and seeded (n=3) in 1% FBS/DMEM at 4.0×10^4 cells per well of a 24-well plate. Next, 25 μL of Opti-MEM (Gibco, Life Technologies Corp., Carlsbad, Calif.) containing 50 ng of pTCF4-CMVpro-GL4.20, having 3 copies of TCF motifs (CCT TTG ATC) upstream of a CMV promoter in a multiple cloning site of pGL4.20 (Promega), and 5 ng of pRL-CMV Vector (Promega) and 25 μL of Opti-MEM containing 0.4 μL of Lipofectamine 2000 (Invitrogen, Life Technologies Corp., Carlsbad, Calif.) were mixed and incubated at room temperature for 20 min. At 20 h after the cell seeding, the mixture was added to each well, so that both reporter plasmids were transiently transfected into the cells. After additional 4 h, 2.5 ng/mL of TGF-β and each compound were added to the cells and the mixture was cultured at 37° C.
At 24 and 48 h after the compound treatment, the culture medium was discarded, and 100 μL of room temperature 5×Passive Lysis Buffer (PLB), which had been diluted 5-fold with MilliQ water, was added to each well. Next, the plate was shaken at room temperature for 15 min and was then frozen at −30° C. overnight. A Luciferase Assay Substrate was diluted with 10 mL of room temperature Luciferase Assay Buffer II to prepare Luciferase Assay Reagent II (LARII). Then, 1 μL of Stop&Glo Substrate was diluted with 49 μL of room temperature Stop&Glo Buffer to prepare Stop&Glo (Promega) in a quantity enough for samples.
The frozen PLB lysate samples were thawed and permeabilized for 15 min. After that, 50 μl aliquots of LARII were dispensed into 3.5 mL test tubes (Sarstedt, AG & Co., Numbrecht, Germany) and 10 μL of each frozen PLB lysate sample was added and mixed well. Subsequently, luminescence was quantified by using a MiniLumat LB 9506 (Berthold Technologies GmbH & Co, Bad Wildbad, Germany) to measure firefly luciferase activity. After the measurement, 50 μL of Stop&Glo was added and mixed well and luminescence was then quantified by using the MiniLumat LB 9506 to determine Renilla luciferase activity. The measurement results were obtained by dividing the firefly luciferase activity by the Renilla luciferase activity.

Wnt/β-catenin signaling [2] = experiment: Inhibitory effect on Wnt/β-catenin signaling in liver cancer cells (HuH7-TCF4 luciferase); conditions: concentration equal to or lower than that of IC-2
Method: A pTCF4-CMVpro-GL4.20 plasmid vector, which had been constructed by inserting 3 copies of TCF4 motifs (CCT TTG ATC) upstream of a CMV promoter into a multiple cloning site of pGL4.20 (Promega Corp., Fitchburg, Wis.), was linearized and stably transfected into the HuH-7 cells. The resulting stable cells (HuH7-TCF4 cells) and HuH-7 cells were likewise cultured.
While each compound was added at concentrations where the growth of HuH-7 cells was reduced to about 50% or less, Wnt/β-catenin signaling activity was measured. The concentrations of the respective compounds were as described in FIG. 40. Control samples used were 0.1% DMSO, a solvent for each compound, and 0.5 μM 5-FU.
First, 70 to 90% confluent HuH7-TCF4 cells were harvested and seeded (n=3) at 5.0×10^4 cells/well of a 24-well plate (TPP). After 24 h, each compound was added to the cells and the mixture was cultured at 37° C.
At 48 h after the compound treatment, the culture medium was discarded, and 100 μL of room temperature 5×Passive Lysis Buffer (PLB) (Promega Corp., Fitchburg, Wis.), which had been diluted 5-fold with MilliQ water, was added to each well. Next, the plate was shaken at room temperature for 15 min and was then frozen at −30° C. overnight. A Luciferase Assay Substrate was diluted with 10 mL of room temperature Luciferase Assay Buffer II to prepare Luciferase Assay Reagent II (LARII) (Promega). The frozen PLB lysate samples were thawed and permeabilized for 15 min. Then, 10 μL aliquots were added to wells of a 96-well white plate (Corning Inc., Corning, N.Y.). While 50 μL aliquots of LARII were each added to each well, luminescence was quantified by using a 1420 multi-label counter ARVO MX (PerkinElmer Singapore Pte Ltd., Singapore) to determine firefly luciferase activity. Note that a significant difference was evaluated by using (two-tailed) Student's t-test. The “*” in figures indicates a significant difference of p<0.05 between 0.1% DMSO and each compound; and the “**” indicates a significant difference of p<0.01 (the same applies to all the figures in Examples).

| IC50 (HuH-7 cells) [µM] | IC50 compared with IC-2 (HuH-7 cells) | hepatocyte-inducing effect compared with IC-2 (mesenchymal stem cell; concentration higher than that of IC-2) | hepatocyte-inducing effect at low concentration (mesenchymal stem cell; low concentration) | Compound | anti-fibrosis effect compared with IC-2, equal or higher concentration (LX-2 cells; concentration equal to or higher than that of IC-2) | inhibitory effect on Wnt/β-catenin signaling pathway in liver stellate cells compared with IC-2 (Wnt/β-catenin signaling [1]) | anti-tumor effect compared with IC-2 (HuH-7 cells; at a concentration lower than that of IC-2) | anti-fibrosis effect compared with IC-2, lower concentration (LX-2 cells; concentration even lower than that of IC-2) | inhibitory effect on Wnt/β-catenin signaling pathway in liver cancer cells compared with IC-2 (Wnt/β-catenin signaling [2]) |
| --- | --- | --- | --- | --- | --- | --- | --- | --- | --- |
| 25.6 | lower IC50 than IC-2 | more potent hepatocyte-inducing effect | – | O=C1C(Cc2ccccc2)N2C(=O)CCN(C(=O)NCc3ccccc3)C2CN1Cc1ccc(Cl)cc1Cl (stereo not drawn) [IC-2-506-2] | more potent anti-fibrosis effect | more potent inhibitory effect | – | – | – |
| 14.4 | lower IC50 than IC-2 | – | exerted a hepatocyte-inducing effect | O=C1C(Cc2ccccc2)N2C(=O)CCN(C(=O)NCc3ccc(Cl)cc3)C2CN1Cc1cccc2ccccc12 (stereo not drawn) [IC-2-Cl] | – | more potent inhibitory effect | more potent anti-tumor effect | more potent anti-fibrosis effect | more potent inhibitory effect |
